Measured values published in patent US10634665B2 (priority 2014, dated 2020).

Tested on: BEAS-2B epithelium
Assay: Drug toxicity test in bronchiolar device (LDH release)
Format: cell-based
Conditions: 0.1, 1.0 and 10 μM in BEGM medium, recirculating 10 μL/min, 48 hours, bronchiolar device of FIG. 27; FIG. 95A
Method: FIGS. 95A-95D show drug toxicity results obtained from using a bronchiolar device embodiment described herein; FIG. 95A is a graph of camptothecin concentration (μM) vs. cytotoxicity (% LDH release) illustrating the cytotoxicity of camptothecin as measured after having passed through the bronchiolar device; […] show images of fluorescent microbead deposition on a central lumen associated with cells.
Drug toxicity was tested using a bronchiolar device as described herein. A pro-apoptotic anti-cancer drug, camptothecin, was chosen to monitor drug toxicity in the bronchiolar device illustrated in FIG. 27. Different concentrations of camptothecin (0.1, 1.0 and 10 μM) were prepared by diluting the original stock solution (2 mg/mL in DMSO) with BEGM culturing medium. After the lumen of a hollow tube of the device was covered with BEAS-2B epithelium, medium in the medium reservoir (which was connected to a maintaining system) was replaced with individual concentrations of the camptothecin medium solution to allow the circulating flow into medium chamber of device. The tubing connected to hollow tube was closed and the recirculating flow rate was set to 10 μL/min to allow camptothecin to diffuse into the bronchiolar epithelium for 48 hours.

With `CC[C@@]1(O)C(=O)OCc2c1cc1n(c2=O)Cc2cc3ccccc3nc2-1` [camptothecin] the “cytotoxicity (% LDH release) versus camptothecin concentration” value was “drug dose dependence was observed”.
